# ChEMBL document CHEMBL4311976, “Design, synthesis and biological evaluation of novel 7H-pyrrolo[2,3-d]pyrimidine derivatives as potential FAK inhibitors and anticancer agents” (Eur J Med Chem, 2019)
# Experiments:
# [1] = biological target: Tyrosine-protein kinase ZAP-70 (Homo sapiens) (UniProt P43403); test: Inhibition of recombinant full length His-tagged human ZAP70 expressed in baculovirus expression system at 0.5 uM using tyr 07 as substrate in presence of ATP at Km concentration after 1 hr by Z'-LYTE assay relative to control
# Chain of Tyrosine-protein kinase ZAP-70 (Homo sapiens) (P43403 whole entry): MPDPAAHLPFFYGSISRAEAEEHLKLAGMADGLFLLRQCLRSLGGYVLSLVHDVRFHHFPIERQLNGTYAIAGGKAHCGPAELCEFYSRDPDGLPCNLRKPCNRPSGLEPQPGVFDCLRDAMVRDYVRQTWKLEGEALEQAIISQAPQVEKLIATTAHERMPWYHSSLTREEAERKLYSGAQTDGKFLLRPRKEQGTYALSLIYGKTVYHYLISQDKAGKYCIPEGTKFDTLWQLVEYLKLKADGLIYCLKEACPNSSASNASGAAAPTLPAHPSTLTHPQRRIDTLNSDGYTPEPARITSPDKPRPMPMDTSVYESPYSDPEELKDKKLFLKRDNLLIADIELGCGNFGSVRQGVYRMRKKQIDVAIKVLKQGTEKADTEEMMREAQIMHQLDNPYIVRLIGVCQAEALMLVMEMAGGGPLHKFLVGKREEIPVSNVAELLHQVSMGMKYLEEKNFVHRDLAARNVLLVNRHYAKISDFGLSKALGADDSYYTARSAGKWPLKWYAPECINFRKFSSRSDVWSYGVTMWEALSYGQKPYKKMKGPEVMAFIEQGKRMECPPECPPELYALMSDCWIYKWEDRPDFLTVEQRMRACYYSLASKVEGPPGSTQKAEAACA
# [2] = biological target: Tyrosine-protein kinase SYK (Homo sapiens) (UniProt P43405); test: Inhibition of recombinant full length GST-tagged human SYK expressed in baculovirus expression system at 0.5 uM using tyr 02 as substrate in presence of ATP at Km concentration after 1 hr by Z'-LYTE assay relative to control
# Focal adhesion kinase 1 [3] = biological target: T1, Focal adhesion kinase 1 (Homo sapiens, UniProt Q05397); test: Inhibition of recombinant full length GST-tagged human FAK cytoplasmic domain expressed in baculovirus expression system at 0.5 uM using tyr 07 as substrate in presence of ATP at Km concentration after 1 hr by Z'-LYTE assay relative to control
# Target sequence in this assay (Q05397 2-1052 limits assumed): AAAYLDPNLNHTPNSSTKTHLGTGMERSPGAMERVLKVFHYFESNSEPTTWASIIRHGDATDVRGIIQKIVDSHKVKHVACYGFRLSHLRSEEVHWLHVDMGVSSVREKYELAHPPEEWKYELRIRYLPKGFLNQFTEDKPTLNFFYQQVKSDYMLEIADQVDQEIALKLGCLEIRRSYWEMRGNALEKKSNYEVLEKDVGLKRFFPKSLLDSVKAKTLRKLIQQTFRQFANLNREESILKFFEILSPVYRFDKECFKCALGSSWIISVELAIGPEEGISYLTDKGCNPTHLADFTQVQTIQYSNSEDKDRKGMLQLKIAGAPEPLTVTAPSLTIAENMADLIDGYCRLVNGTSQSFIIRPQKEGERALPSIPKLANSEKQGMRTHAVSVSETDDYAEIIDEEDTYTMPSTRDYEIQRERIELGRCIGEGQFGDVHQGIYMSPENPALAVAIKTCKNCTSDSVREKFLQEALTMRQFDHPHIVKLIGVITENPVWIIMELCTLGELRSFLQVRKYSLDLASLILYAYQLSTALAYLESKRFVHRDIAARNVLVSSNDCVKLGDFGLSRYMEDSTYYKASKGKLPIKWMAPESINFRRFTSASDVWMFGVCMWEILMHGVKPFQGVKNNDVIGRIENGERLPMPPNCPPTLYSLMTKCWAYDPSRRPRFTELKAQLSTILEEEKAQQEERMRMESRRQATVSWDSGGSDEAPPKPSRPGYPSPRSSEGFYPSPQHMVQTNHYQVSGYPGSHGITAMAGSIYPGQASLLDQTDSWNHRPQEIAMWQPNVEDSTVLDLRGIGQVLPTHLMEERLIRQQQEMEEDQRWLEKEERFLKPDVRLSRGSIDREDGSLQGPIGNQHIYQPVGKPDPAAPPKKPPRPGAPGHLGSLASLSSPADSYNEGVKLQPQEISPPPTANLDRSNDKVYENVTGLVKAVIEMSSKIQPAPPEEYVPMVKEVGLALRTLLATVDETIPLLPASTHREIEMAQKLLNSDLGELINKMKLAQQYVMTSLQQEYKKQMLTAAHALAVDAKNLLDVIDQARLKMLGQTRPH
# Homo sapiens = species: Homo sapiens; test: Inhibition of recombinant full length His-tagged human PKA catalytic domain expressed in Escherichia coli at 0.5 uM using Ser/Thr 01 as substrate in presence of ATP at Km concentration after 1 hr by Z'-LYTE assay relative to control
# [4] = biological target: Serine/threonine-protein kinase pim-2 (Homo sapiens) (UniProt Q9P1W9); test: Inhibition of recombinant full length GST-tagged human PIM2 expressed in baculovirus expression system at 0.5 uM using Ser/Thr 07 as substrate in presence of ATP at Km concentration after 1 hr by Z'-LYTE assay relative to control
# Chain of Serine/threonine-protein kinase pim-2 (Homo sapiens) (Q9P1W9 whole entry, looked up, the tested form may be a part): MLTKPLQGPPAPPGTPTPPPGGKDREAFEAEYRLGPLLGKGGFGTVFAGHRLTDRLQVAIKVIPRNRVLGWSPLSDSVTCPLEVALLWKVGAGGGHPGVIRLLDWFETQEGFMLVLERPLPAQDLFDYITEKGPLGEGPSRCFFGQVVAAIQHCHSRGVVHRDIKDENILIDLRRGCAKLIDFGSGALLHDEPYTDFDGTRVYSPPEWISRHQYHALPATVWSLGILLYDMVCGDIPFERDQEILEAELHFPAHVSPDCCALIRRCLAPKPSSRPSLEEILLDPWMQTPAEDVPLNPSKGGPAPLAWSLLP
# [5] = biological target: Hepatocyte growth factor receptor (Homo sapiens) (UniProt P08581); test: Inhibition of recombinant full length N-terminal His-tagged human cMET cytoplasmic domain (956 to 1390 residues) expressed in baculovirus expression system at 0.5 uM using tyr 06 as substrate in presence of ATP at Km concentration after 1 hr by Z'-LYTE assay relative to control
# [6] = biological target: Mitogen-activated protein kinase 1 (Homo sapiens) (UniProt P28482); test: Inhibition of recombinant full length GST-tagged human ERK2 expressed in Escherichia coli at 0.5 uM using Ser/Thr 03 as substrate in presence of ATP at Km concentration after 1 hr by Z'-LYTE assay relative to control
# [7] = biological target: Mast/stem cell growth factor receptor Kit (Homo sapiens) (UniProt P10721); test: Inhibition of recombinant His-tagged human KIT (544 to 976 residues) expressed in baculovirus expression system at 0.5 uM using tyr 06 as substrate in presence of ATP at Km concentration after 1 hr by Z'-LYTE assay relative to control
# [8] = biological target: Receptor-type tyrosine-protein kinase FLT3 (Homo sapiens) (UniProt P36888); test: Inhibition of recombinant His-tagged human FLT3 (564 to 958 residues) expressed in baculovirus expression system at 0.5 uM using tyr 02 as substrate in presence of ATP at Km concentration after 1 hr by Z'-LYTE assay relative to control
# Chain of Receptor-type tyrosine-protein kinase FLT3 (Homo sapiens) (P36888 whole entry, the tested form may be a part): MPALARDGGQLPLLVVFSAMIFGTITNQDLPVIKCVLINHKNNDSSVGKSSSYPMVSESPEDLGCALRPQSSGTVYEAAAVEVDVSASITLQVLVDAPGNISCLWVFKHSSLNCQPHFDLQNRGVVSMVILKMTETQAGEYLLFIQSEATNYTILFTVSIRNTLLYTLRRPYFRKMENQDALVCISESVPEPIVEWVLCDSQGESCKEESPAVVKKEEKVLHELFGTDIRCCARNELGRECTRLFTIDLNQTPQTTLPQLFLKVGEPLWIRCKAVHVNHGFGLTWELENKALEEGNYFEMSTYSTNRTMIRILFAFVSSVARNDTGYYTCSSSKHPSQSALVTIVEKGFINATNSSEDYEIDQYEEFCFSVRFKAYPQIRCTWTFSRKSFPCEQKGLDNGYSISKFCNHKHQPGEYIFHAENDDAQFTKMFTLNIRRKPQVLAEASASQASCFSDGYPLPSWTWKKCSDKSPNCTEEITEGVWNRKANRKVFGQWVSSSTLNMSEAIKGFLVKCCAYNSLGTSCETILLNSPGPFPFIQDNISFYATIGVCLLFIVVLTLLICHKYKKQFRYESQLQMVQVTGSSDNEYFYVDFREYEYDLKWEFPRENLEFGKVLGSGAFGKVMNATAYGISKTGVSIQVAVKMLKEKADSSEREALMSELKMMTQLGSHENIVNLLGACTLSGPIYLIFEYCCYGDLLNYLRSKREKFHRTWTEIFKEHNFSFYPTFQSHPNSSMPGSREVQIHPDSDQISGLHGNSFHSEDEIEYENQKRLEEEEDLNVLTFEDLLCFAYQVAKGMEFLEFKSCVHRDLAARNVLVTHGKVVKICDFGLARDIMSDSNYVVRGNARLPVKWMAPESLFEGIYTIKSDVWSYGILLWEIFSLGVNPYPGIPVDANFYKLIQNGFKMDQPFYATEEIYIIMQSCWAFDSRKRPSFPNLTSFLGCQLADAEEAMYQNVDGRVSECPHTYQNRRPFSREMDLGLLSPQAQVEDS
# [9] = biological target: Discoidin domain-containing receptor 2 (Homo sapiens) (UniProt Q16832); test: Inhibition of recombinant GST-tagged human DDR2 (427 to 855 residues) expressed in baculovirus expression system at 0.5 uM after 1 hr by Lantha screen assay relative to control
# Chain of Discoidin domain-containing receptor 2 (Homo sapiens) (Q16832 whole entry, the tested form may be a part): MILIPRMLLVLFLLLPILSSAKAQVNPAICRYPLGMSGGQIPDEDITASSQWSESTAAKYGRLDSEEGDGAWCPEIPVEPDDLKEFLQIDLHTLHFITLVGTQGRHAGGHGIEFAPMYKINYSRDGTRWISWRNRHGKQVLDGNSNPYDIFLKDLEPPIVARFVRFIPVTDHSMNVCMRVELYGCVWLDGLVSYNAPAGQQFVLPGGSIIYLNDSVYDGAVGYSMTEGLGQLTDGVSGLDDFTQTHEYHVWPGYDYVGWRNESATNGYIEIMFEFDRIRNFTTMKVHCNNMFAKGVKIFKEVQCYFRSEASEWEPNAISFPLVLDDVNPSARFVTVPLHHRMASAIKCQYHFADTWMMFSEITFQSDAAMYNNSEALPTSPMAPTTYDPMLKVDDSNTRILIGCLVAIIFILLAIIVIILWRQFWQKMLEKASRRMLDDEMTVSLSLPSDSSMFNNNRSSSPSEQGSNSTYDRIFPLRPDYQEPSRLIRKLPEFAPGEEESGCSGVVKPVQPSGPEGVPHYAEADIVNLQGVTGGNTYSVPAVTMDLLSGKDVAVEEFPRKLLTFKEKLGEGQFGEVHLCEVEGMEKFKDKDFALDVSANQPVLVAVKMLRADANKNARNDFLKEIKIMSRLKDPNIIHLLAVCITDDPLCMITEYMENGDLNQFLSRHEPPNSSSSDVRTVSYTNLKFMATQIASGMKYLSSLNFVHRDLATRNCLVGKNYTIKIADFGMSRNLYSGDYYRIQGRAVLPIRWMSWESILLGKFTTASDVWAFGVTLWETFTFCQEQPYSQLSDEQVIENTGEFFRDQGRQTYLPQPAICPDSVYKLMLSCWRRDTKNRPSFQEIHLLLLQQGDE
# [10] = biological target: Serine/threonine-protein kinase Chk1 (Homo sapiens) (UniProt O14757); test: Inhibition of recombinant full-legth His-tagged human CHK1 expressed in baculovirus expression system at 0.5 uM using Ser/Thr 19 as substrate in presence of ATP at Km concentration after 1 hr by Z'-LYTE assay relative to control
# Chain of Serine/threonine-protein kinase Chk1 (Homo sapiens) (O14757 whole entry): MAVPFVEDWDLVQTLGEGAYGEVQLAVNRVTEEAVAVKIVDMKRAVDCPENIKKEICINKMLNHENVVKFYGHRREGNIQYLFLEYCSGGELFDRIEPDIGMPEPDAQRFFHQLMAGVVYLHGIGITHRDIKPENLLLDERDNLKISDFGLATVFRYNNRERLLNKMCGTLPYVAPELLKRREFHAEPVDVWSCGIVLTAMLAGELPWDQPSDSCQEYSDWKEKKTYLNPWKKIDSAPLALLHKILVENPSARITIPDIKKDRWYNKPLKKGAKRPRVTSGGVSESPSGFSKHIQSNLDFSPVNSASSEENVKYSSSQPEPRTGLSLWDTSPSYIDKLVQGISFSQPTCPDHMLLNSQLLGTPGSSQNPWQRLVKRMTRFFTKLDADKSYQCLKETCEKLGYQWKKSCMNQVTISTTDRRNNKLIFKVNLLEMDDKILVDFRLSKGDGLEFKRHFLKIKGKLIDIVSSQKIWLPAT
# [11] = biological target: CDK2/Cyclin A2 (Homo sapiens) (UniProt P24941+P20248); test: Inhibition of recombinant full-legth His-tagged human CDK2/CyclinA expressed in baculovirus expression system at 0.5 uM using Ser/Thr 12 as substrate in presence of ATP at Km concentration after 1 hr by Z'-LYTE assay relative to control
# [12] = biological target: Tyrosine-protein kinase BTK (Homo sapiens) (UniProt Q06187); test: Inhibition of recombinant full-legth His-tagged human BTK expressed in baculovirus expression system at 0.5 uM using tyr 01 as substrate in presence of ATP at Km concentration after 1 hr by Z'-LYTE assay relative to control
# [13] = biological target: Serine/threonine-protein kinase B-raf (Homo sapiens) (UniProt P15056); test: Inhibition of full length GST-tagged human BRAF expressed in baculovirus expression system at 0.5 uM using Ser/Thr 03 as substrate in presence of 100 uM ATP after 1 hr by Z'-LYTE assay relative to control
# [14] = biological target: RAC-alpha serine/threonine-protein kinase (Homo sapiens) (UniProt P31749); test: Inhibition of recombinant full-legth His-tagged human AKT1 expressed in baculovirus expression system at 0.5 uM using Ser/Thr 06 as substrate in presence of ATP at Km concentration after 1 hr by Z'-LYTE assay relative to control
# Chain of RAC-alpha serine/threonine-protein kinase (Homo sapiens) (P31749 whole entry): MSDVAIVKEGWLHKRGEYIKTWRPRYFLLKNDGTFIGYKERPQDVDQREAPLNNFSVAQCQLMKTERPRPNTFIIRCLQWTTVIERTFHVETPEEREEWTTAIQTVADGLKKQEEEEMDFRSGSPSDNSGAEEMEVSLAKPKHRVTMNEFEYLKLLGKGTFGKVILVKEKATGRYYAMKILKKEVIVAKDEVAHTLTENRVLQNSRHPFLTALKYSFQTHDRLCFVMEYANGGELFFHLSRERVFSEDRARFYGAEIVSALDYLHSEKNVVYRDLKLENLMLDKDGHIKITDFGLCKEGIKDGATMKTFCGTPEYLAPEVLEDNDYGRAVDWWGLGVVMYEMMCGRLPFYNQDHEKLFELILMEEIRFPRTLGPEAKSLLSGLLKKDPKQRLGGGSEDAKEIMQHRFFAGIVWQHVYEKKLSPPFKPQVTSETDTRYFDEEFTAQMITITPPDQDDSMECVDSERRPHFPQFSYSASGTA
# [15] = Intrinsic clearance in mouse liver at 1 uM measured up to 1 hr in presence of NADPH by LC-MS/MS analysis; format: ADME, tissue-based
# [16] = Intrinsic clearance in human liver microsomes at 1 uM measured up to 1 hr in presence of NADPH by LC-MS/MS analysis; format: ADME, Microsome; conditions: read-out: CLH
# [17] = Metabolic stability in human liver microsomes assessed as compound remaining at 1 uM measured up to 1 hr in presence of NADPH by LC-MS/MS analysis; format: ADME, Microsome; conditions: read-out: Stability
# [18] = Half life in human liver microsomes at 1 uM measured up to 1 hr by LC-MS/MS analysis; format: ADME, Microsome
# [19] = Half life in mouse liver microsomes at 1 uM measured up to 1 hr by LC-MS/MS analysis; format: ADME, Microsome
# [20] = Half life in rat liver microsomes at 1 uM measured up to 1 hr by LC-MS/MS analysis; format: ADME, Microsome
# A549 [21] = test: Induction of apoptosis in human A549 cells assessed as necrotic cells at 1 uM after 72 hrs by Annexin V-FITC/propidium iodide staining-based flow cytometric analysis (reference value: 1.70%); format: functional
# A549 [22] = test: Induction of apoptosis in human A549 cells assessed as late apoptotic cells at 1 uM after 72 hrs by Annexin V-FITC/propidium iodide staining-based flow cytometric analysis (reference value: 1.24%); format: functional
# A549 [23] = test: Induction of apoptosis in human A549 cells assessed as viable cells at 1 uM after 72 hrs by Annexin V-FITC/propidium iodide staining-based flow cytometric analysis (reference value: 94.66%); format: functional; conditions: A549, 72 h, read-out: Activity
# Focal adhesion kinase 1 [24] = biological target: T1, Focal adhesion kinase 1; test: Inhibition of recombinant N-terminal GST-tagged human FAK (327 to 1052 residues) expressed in baculovirus expression system using TK as substrate incubated for 50 mins in presence of ATP and measured after 1 hr by HTRF assay
# A549 [25] = test: cells; conditions: Homo sapiens, A549, 72 h
# Description: Antiproliferative activity against human A549 cells assessed as reduction in cell viability after 72 hrs by MTT assay
smiles,measurement,setting,value
COc1cc(C(=O)NC2CCNCC2)ccc1Nc1nc(Nc2ccccc2P(C)(C)=O)c2cc[nH]c2n1,inhibition,[1],-3%
same,inhibition,[2],73%
same,inhibition,Focal adhesion kinase 1 [3],100%
same,inhibition,Homo sapiens,2%
same,inhibition,[4],-3%
same,inhibition,[5],-2%
same,inhibition,[6],9%
same,inhibition,[7],2%
same,inhibition,[8],13%
same,inhibition,[9],1%
same,inhibition,[10],3%
same,inhibition,[11],1%
same,inhibition,[12],0%
same,inhibition,[13],3%
same,inhibition,[14],0%
same,CLH,[15],39.9 mL/min/kg
same,microsomal CLint at 1 µM,[16],12.9 µL/min/mg
same,"remaining at 1 h, 1 µM",[17],67.9%
same,half-life at 1 µM,[18],1.79 h
same,half-life at 1 µM,[19],2.29 h
same,half-life at 1 µM,[20],> 2.42 h
same,Activity,A549 [21],6.37%
same,Activity,A549 [22],9.62%
same,viability at 1 µM,A549 [23],70.7%
same,IC50,Focal adhesion kinase 1 [24],5.4 nM
same,IC50,A549 [25],3200 nM
